Data on 14 molecules can be found in patent US11814376B2, “Hepatitis b core protein modulators” (Assembly Biosciences, Inc., priority 2015, dated 2023).

In data set [1] the test system is HBV viral load in AD38 cells. As to the kind of experiment: Viral load production in AD38 cells, quantitative PCR of the core sequence in supernatant. Type of data set: cell-based. As to conditions: Hepatitis B virus, 144 h, 10 μM compound, 6 days at 37° C., supernatant qPCR, relative to DMSO control; read-out: AD38 Viral Load (%) (VL with cmpd/VL in DMSO control) at 10 μM.

The test system of the next data set is AD38 cells. As to the kind of experiment: Viability of AD38 cells (Promega CellTiter-Glo). It is filed as cell-based. As to conditions: 10 μM compound, 6 days, CellTiter-Glo luminescence normalized to DMSO control (100%). The method in brief: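 After 6 days of compound exposure at 37° C (compound added as 10× solution in 10% DMSO; 50,000 cells/well, collagen-coated), medium was replaced with tetracycline-free DMEM/F12, 2% FBS, 1% DMSO. CellTiter-Glo luminescence was then recorded and normalized to DMSO-treated wells as 100% viability.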

For the molecule `O=C(NCc1cnc(-c2ccc(O)c(F)c2)s1)c1ccc2c(c1)NC(=O)c1ccccc1O2` [compound 1700], in data set [1], the activity at 10 µM came to 9.2%. Further, the “AD38 Viability Normalized Result (cmpd/DMSO %) at 10 μM” value with AD38 cells turned out to be 105%.
As to `O=C(NCc1cnc(-c2cc(F)c(O)c(F)c2)s1)c1ccc2c(c1)NC(=O)c1ccccc1O2` [compound 1701], in data set [1], the activity at 10 µM is 2.1%. Further, in the data set on AD38 cells, the “AD38 Viability Normalized Result (cmpd/DMSO %) at 10 μM” value is recorded as 94%.
As for `O=C(NCc1cnc(-c2ccc(O)c(Cl)c2)s1)c1ccc2c(c1)NC(=O)c1ccccc1O2` [compound 1702], the activity at 10 µM in data set [1] is 5.3%. For the same molecule, the “AD38 Viability Normalized Result (cmpd/DMSO %) at 10 μM” value in the data set on AD38 cells is 102%.
Taken in the same sequence, the figures for `O=C(NCc1cnc(-c2ccc(O)cc2Cl)s1)c1ccc2c(c1)NC(=O)c1ccccc1O2` [compound 1703] were 3.1% and 93%.
For `O=C(NCc1cnc(-c2ccc(O)cc2F)s1)c1ccc2c(c1)NC(=O)c1ccccc1O2` [compound 1704], in data set [1], the activity at 10 µM came out at 47.6%. Also, the “AD38 Viability Normalized Result (cmpd/DMSO %) at 10 μM” value in the data set on AD38 cells is given as 96%.
As for `COc1ccc(-c2ncc(CNC(=O)c3ccc4c(c3)NC(=O)c3ccccc3O4)s2)cn1` [compound 1705, N-((2-(6-methoxypyridin-3-yl)thiazol-5-yl)methyl)-11-oxo-10, 11-dihydrodibenzo [b, f] [1, 4] oxazepine-8-carboxamide], in data set [1], the activity at 10 µM amounted to 3.7%. The “AD38 Viability Normalized Result (cmpd/DMSO %) at 10 μM” value in the data set on AD38 cells was 93%.
Taken in the same sequence, the figures for `O=C(NCc1cnc(-c2ccc(O)nc2)s1)c1ccc2c(c1)NC(=O)c1ccccc1O2` [compound 1706, N-((2-(6-hydroxypyridin-3-yl)thiazol-5-yl)methyl)-11-oxo-10, 11-dihydrodibenzo [b, f] [1, 4] oxazepine-8-carboxamide] were 57.5% and 103%.
As to `Nc1ccc(-c2ncc(CNC(=O)c3ccc4c(c3)NC(=O)c3ccccc3O4)s2)cn1` [compound 1707, N-((2-(6-aminopyridin-3-yl)thiazol-5-yl)methyl)-11-oxo-10, 11-dihydrodibenzo [b, f] [1, 4] oxazepine-8-carboxamide], the activity at 10 µM in data set [1] came to 10.7%. Further, in the data set with AD38 cells, the “AD38 Viability Normalized Result (cmpd/DMSO %) at 10 μM” value was 88%.
Taken in the same sequence, the figures for `CN(C)c1ccc(-c2ncc(CNC(=O)c3ccc4c(c3)NC(=O)c3ccccc3O4)s2)cn1` [compound 1708] were 0.8% and 90%.
For `O=C(NCc1cnc(-c2cnc(O)nc2)s1)c1ccc2c(c1)NC(=O)c1ccccc1O2` [compound 1709, N-((2-(2-hydroxypyrimidin-5-yl)thiazol-5-yl)methyl)-11-oxo-10, 11-dihydrodibenzo [b, f] [1, 4] oxazepine-8-carboxamide], the activity at 10 µM in data set [1] was determined as 51.1%. In addition, the “AD38 Viability Normalized Result (cmpd/DMSO %) at 10 μM” value in the data set on AD38 cells was determined as 94%.
`Nc1ncc(-c2ncc(CNC(=O)c3ccc4c(c3)NC(=O)c3ccccc3O4)s2)cn1` [compound 1710]: the activity at 10 µM in data set [1] amounted to 39.9%. In addition, the “AD38 Viability Normalized Result (cmpd/DMSO %) at 10 μM” value with AD38 cells is recorded as 96%.
Taken in the same sequence, the figures for `CN(C)c1ncc(-c2ncc(CNC(=O)c3ccc4c(c3)NC(=O)c3ccccc3O4)s2)cn1` [compound 1711] were 6.5% and 96%.
Taken in the same sequence, the figures for `CN1c2ccc(C(=O)NCc3cnc(-c4ccc(O)cc4)s3)cc2NC(=O)c2ccccc21` [compound 1732] were 18.8% and 100%.
Taken in the same sequence, the figures for `O=C(NCc1cnc(-c2ccc(O)cc2)s1)c1ccc2c(c1)NC(=O)c1ccccc1C2` [compound 1734] were 10.6% and 96%.
